Measurements published in the supplement of paper PMC11562712.

Test: first-order primary biodegradation rate constant k (sorption-corrected, fDis-corrected) (d-1); higher = faster biodegradation
Procedure: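 Modified OECD 309 water-sediment test. River water plus sieved sediment (50 g wet solid/L) from European river segments (DE, CH, ES, EL) was spiked with a mixture of 129 compounds at 1 ug/L each and incubated in the dark at river temperature for 10 days. The water phase was analysed by UHPLC-Orbitrap-MS. The first-order primary biodegradation rate constant k (d-1) is k_observed, corrected for dissipation in sterile sorption controls and divided by the dissolved fraction fDis; it was fitted over 3 replicate incubations. Invalid fits (p > 0.05, n < 5, not available, concentration increase) are excluded.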

[1] = river segment: Germany (DE) H_Contam, incubation temperature 24 °C
[2] = river segment: Germany (DE) T_Contam, incubation temperature 24 °C
[3] = river segment: Germany (DE) T_Pris, incubation temperature 24 °C
[4] = river segment: Greece (EL) G_Contam, incubation temperature 19 °C
[5] = river segment: Greece (EL) G_Pris, incubation temperature 19 °C
[6] = river segment: Greece (EL) L_Contam, incubation temperature 19 °C
[7] = river segment: Spain (ES) B_Contam, incubation temperature 24 °C
[8] = river segment: Spain (ES) F_Pris_Salt, incubation temperature 24 °C
[9] = river segment: Spain (ES) L_Contam, incubation temperature 24 °C
[10] = river segment: Switzerland (CH) C_Contam, incubation temperature 17 °C
[11] = river segment: Switzerland (CH) R_Contam, incubation temperature 17 °C
[12] = river segment: Switzerland (CH) U_Contam, incubation temperature 17 °C
[13] = river segment: Switzerland (CH) U_Pris, incubation temperature 17 °C
[14] = river segment: Spain (ES) C_Contam, incubation temperature 24 °C
[15] = river segment: Greece (EL) A_Contam, incubation temperature 19 °C

SMILES	first-order primary biodegradation rate constant k [1]	first-order primary biodegradation rate constant k [2]	first-order primary biodegradation rate constant k [3]	first-order primary biodegradation rate constant k [4]	first-order primary biodegradation rate constant k [5]	first-order primary biodegradation rate constant k [6]	first-order primary biodegradation rate constant k [7]	first-order primary biodegradation rate constant k [8]	first-order primary biodegradation rate constant k [9]	first-order primary biodegradation rate constant k [10]	first-order primary biodegradation rate constant k [11]	first-order primary biodegradation rate constant k [12]	first-order primary biodegradation rate constant k [13]	first-order primary biodegradation rate constant k [14]	first-order primary biodegradation rate constant k [15]
C=CCOc1ccccc1OCC(O)CNC(C)C (stereo not given) [Oxprenolol]	0.0433	1.9	0.0369	0.0189	0.111	0.756	0.107	0.426	0.142	0.0127	0.0926	0.0534	0.0473	–	–
COCC(C)N(C(=O)CCl)c1c(C)csc1C (stereo not given) [Dimethenamid]	–	0.036	–	–	–	0.014	–	–	0.0244	–	0.0163	0.0318	0.0152	–	0.0238
CNC(=C[N+](=O)[O-])NCCSCc1ccc(CN(C)C)o1 [Ranitidine]	0.498	28.6	17.5	1.42	28.8	3.75	1.57	0.103	3.75	0.639	0.559	0.756	0.596	0.0642	6.6
CC1(C(=O)Nc2ccc(O)c(Cl)c2Cl)CCCCC1 [Fenhexamid]	0.151	0.656	0.165	–	0.641	0.493	–	0.0571	0.189	–	0.0432	–	0.988	0.109	0.189
CC(C)(C#N)c1cc(Cn2cncn2)cc(C(C)(C)C#N)c1 [Anastrozole]	–	0.0241	0.0157	0.658	0.133	0.113	–	–	–	–	–	0.00582	–	–	–
O=[N+]([O-])/N=C1\NCCN1Cc1ccc(Cl)nc1 [Imidacloprid]	0.029	0.0495	–	–	–	–	–	–	–	–	–	–	0.00932	0.0128	–
NS(=O)(=O)c1cc2c(cc1Cl)N=CNS2(=O)=O [Chlorothiazide]	–	0.0266	–	–	–	–	–	0.166	–	–	–	–	–	–	–
CN(C)C(=O)Oc1cccc([N+](C)(C)C)c1 [Neostigmine]	–	0.101	–	–	0.0309	–	–	–	–	–	–	0.486	–	–	–
CC(C)c1ccc(NC(=O)N(C)C)cc1 [Isoproturon]	0.0107	0.0814	–	–	0.111	0.0309	–	–	0.0402	–	–	0.0187	0.0209	0.0102	0.072

Results, then the compound that gave them:

first-order primary biodegradation rate constant k [1]	first-order primary biodegradation rate constant k [2]	first-order primary biodegradation rate constant k [3]	first-order primary biodegradation rate constant k [4]	first-order primary biodegradation rate constant k [5]	first-order primary biodegradation rate constant k [6]	first-order primary biodegradation rate constant k [7]	first-order primary biodegradation rate constant k [8]	first-order primary biodegradation rate constant k [9]	first-order primary biodegradation rate constant k [10]	first-order primary biodegradation rate constant k [11]	first-order primary biodegradation rate constant k [12]	first-order primary biodegradation rate constant k [13]	first-order primary biodegradation rate constant k [14]	first-order primary biodegradation rate constant k [15]	SMILES
0.341	0.352	0.336	0.37	0.293	1.27	0.569	0.144	0.28	0.326	0.309	0.473	0.772	0.414	–	CC(C)NCC(O)COc1ccc(COCCOC(C)C)cc1 (stereo not given) [Bisoprolol]
0.299	0.901	0.3	0.342	0.147	0.665	2.88	0.0637	0.568	0.114	0.395	0.508	0.447	–	0.39	CC(C)NCC(O)COc1ccc(CC(N)=O)cc1 (stereo not given) [Atenolol]
0.0977	0.382	–	0.396	0.441	0.195	–	–	1.07	0.0233	–	–	0.0441	–	0.161	COc1ccc(NS(=O)(=O)c2ccc(N)cc2)nn1 [Sulfamethoxypyridazine]
0.0259	0.567	0.127	–	0.127	0.215	0.0245	–	–	0.0239	0.0245	0.0346	0.0723	0.0361	0.19	CN(C)CCN1C(=O)c2ccccc2N(C)c2ccccc21 [Dibenzepin]
0.0901	0.0769	0.0208	–	0.0358	0.0249	0.0306	–	0.11	0.0409	0.0581	0.034	0.0607	0.0243	0.0823	CC(C)(Oc1ccc(Cl)cc1)C(=O)O [Clofibric acid]
0.143	0.278	0.133	–	0.227	0.152	0.371	–	0.327	0.237	–	–	1.01	0.26	0.37	Cc1ccc(C)c(OCCCC(C)(C)C(=O)O)c1 [Gemfibrozil]
0.00417	4.92	–	8.04	–	19.9	0.279	–	–	0.0178	0.288	0.0832	0.185	0.06	–	CN(C)CCCC1(c2ccc(F)cc2)OCc2cc(C#N)ccc21 (stereo not given) [Citalopram]
–	0.145	0.00509	0.0195	0.102	0.0444	0.76	0.076	0.413	–	0.141	0.0814	–	0.248	0.115	COc1ccc2cc([C@H](C)C(=O)O)ccc2c1 [Naproxen]
2.67	–	1.42	–	–	–	–	0.275	4.24	–	–	–	–	2.24	–	CCCOC(=O)c1ccc(O)cc1 [Propylparaben]
